# Reference: patent US20060115815A1 (priority 2002, published 2006)
# Several values for one entry are separate records, joined by “and”; a condition that tells them apart may be missing. Identical values can stand only once. Like-named read-outs stand apart in the source and are kept apart here.
# Tested on: wild-type HIV-1 strain IIIB
# Assay: microbe, parasite or virus in culture
# Type: cell-based
SMILES,EC50 (read-out: EC50),"EC50 (Human immunodeficiency virus 1, IIIB, MT2)"
CCOP(=O)(CCN1CCN(CC(NC(=O)OC2COC3OCCC23)C(O)CN(CC(C)C)S(=O)(=O)c2ccc(OC)cc2)CC1)OCC (stereo not drawn),50 to 500 nM,–
CCOC(=O)C(C)OP(=O)(CN1CC=C(CC(NC(=O)OC2COC3OCCC23)C(O)CN(CC(C)C)S(=O)(=O)c2ccc(OC)cc2)CC1)Oc1ccccc1 (stereo not drawn),> 5000 nM,–
CCOC(=O)C(C)OP(=O)(CCN1CC=C(CC(NC(=O)OC2COC3OCCC23)C(O)CN(CC(C)C)S(=O)(=O)c2ccc(OC)cc2)CC1)Oc1ccccc1 (stereo not drawn),> 5000 nM,–
COc1ccc(S(=O)(=O)N(CC(C)C)CC(O)C(CC2=CCN(CCP(=O)(O)OC(C)C(=O)O)CC2)NC(=O)OC2COC3OCCC23)cc1 (stereo not drawn),> 5000 nM,–
CCOC(=O)C(C)OP(=O)(Cc1ccc(NCC(NC(=O)OC2COC3OCCC23)C(O)CN(CC(C)C)S(=O)(=O)c2ccc(OC)cc2)cc1)Oc1ccccc1 (stereo not drawn),< 50 nM,–
CCOC(=O)C(C)OP(=O)(Cc1ccc(N(C)CC(NC(=O)OC2COC3OCCC23)C(O)CN(CC(C)C)S(=O)(=O)c2ccc(OC)cc2)cc1)Oc1ccccc1 (stereo not drawn),< 50 nM,–
CCOP(=O)(OCC)c1ccc(CNCC(NC(=O)OC2COC3OCCC23)C(O)CN(CC(C)C)S(=O)(=O)c2ccc(OC)cc2)cc1 (stereo not drawn),< 50 nM,–
COc1ccc(S(=O)(=O)N(CCN(C)C)CC(O)C(Cc2ccc(O)cc2)NC(=O)OC2COC3OCCC23)cc1 (stereo not drawn),50 to 500 nM,–
CCOP(=O)(COc1ccc(C[C@H](NC(=O)O[C@H]2CO[C@H]3OCC[C@H]32)[C@H](O)CN(CC(C)C)S(=O)(=O)c2ccc([N+](=O)[O-])cc2)cc1)OCC,< 50 nM,–
CCOC(=O)C(C)OP(=O)(COc1ccc(C[C@H](NC(=O)O[C@H]2CO[C@H]3OCC[C@H]32)[C@H](O)CN(CC(C)C)S(=O)(=O)c2ccc(O)cc2)cc1)Oc1ccccc1 (stereo partly drawn),< 50 nM,–
CCOC(=O)C(C)OP(=O)(COc1ccc(C[C@H](NC(=O)O[C@H]2CO[C@H]3OCC[C@H]32)[C@H](O)CN(CC(C)C)S(=O)(=O)c2ccc(OCc3ccccc3)cc2)cc1)Oc1ccccc1 (stereo partly drawn),50 to 500 nM,–
CC(C)CN(C[C@@H](O)[C@H](Cc1ccc(OCP(=O)(OCc2ccccc2)OC(C)C(=O)OCc2ccccc2)cc1)NC(=O)O[C@H]1CO[C@H]2OCC[C@H]21)S(=O)(=O)c1ccc(OCc2ccccc2)cc1 (stereo partly drawn),> 5000 nM,–
CC(C)CN(C[C@@H](O)[C@H](Cc1ccc(OCP(=O)(OCc2ccccc2)OC(C)C(=O)OCc2ccccc2)cc1)NC(=O)O[C@H]1CO[C@H]2OCC[C@H]21)S(=O)(=O)c1ccccc1 (stereo partly drawn),50 to 500 nM,–
CC(C)CN(C[C@@H](O)[C@H](Cc1ccc(OCP(=O)(OCc2ccccc2)OCc2ccccc2)cc1)NC(=O)O[C@H]1CO[C@H]2OCC[C@H]21)S(=O)(=O)c1ccc(C(F)(F)F)cc1,< 50 nM,–
CC(C)CN(CC(O)C(Cc1ccc(OCP(=O)(OCc2ccccc2)OC(C)C(=O)OCc2ccccc2)cc1)NC(=O)OC1COC2OCCC12)S(=O)(=O)c1ccc[n+]([O-])c1 (stereo not drawn),> 5000 nM,–
CCOC(=O)C(C)OP(=O)(COc1ccc(CC(NC(=O)OC2COC3OCCC23)C(O)CN(CC(C)C)S(=O)(=O)c2ccc(C=O)cc2)cc1)Oc1ccccc1 (stereo not drawn),< 50 nM,–
CC(C)CN(CC(O)C(Cc1ccc(OCP(=O)(OCc2ccccc2)OCc2ccccc2)cc1)NC(=O)OC1COC2OCCC12)S(=O)(=O)c1ccc(C=O)cc1 (stereo not drawn),< 50 nM,–
CCOC(=O)C(C)OP(=O)(COc1ccc(CC(NC(=O)OC2COC3OCCC23)C(O)CN(CC(C)C)S(=O)(=O)c2ccc(CO)cc2)cc1)Oc1ccccc1 (stereo not drawn),< 50 nM,–
CCOC(=O)C(C)OP(=O)(COc1ccc(CC(NC(=O)OC2COC3OCCC23)C(O)CN(CC(C)C)S(=O)(=O)c2ccc(CN3CCOCC3)cc2)cc1)Oc1ccccc1 (stereo not drawn),50 to 500 nM,–
COc1ccc(S(=O)(=O)N(CC(C)C)C[C@@H](OP(=O)(O)O)[C@H](Cc2ccc(OCP(=O)(Oc3ccccc3)O[C@@H](C)C(=O)OC(C)C)cc2)NC(=O)O[C@H]2CO[C@H]3OCC[C@H]32)cc1 (stereo partly drawn),< 50 nM,–
CCOC(=O)[C@H](C)OP(=O)(COc1ccc(C[C@H](NC(=O)O[C@H]2CO[C@H]3OCC[C@H]32)[C@@H](CN(CC(C)C)S(=O)(=O)c2ccc(OC)cc2)OC(=O)[C@H](N)C(C)C)cc1)Oc1ccccc1 (stereo partly drawn),50 to 500 nM,–
CCOC(=O)[C@H](C)OP(=O)(COc1ccc(C[C@H](NC(=O)O[C@H]2CO[C@H]3OCC[C@H]32)[C@H](O)CN(CC(C)C)S(=O)(=O)c2ccc(COC(=O)[C@H](N)C(C)C)cc2)cc1)Oc1ccccc1 (stereo partly drawn),50 to 500 nM,–
CCOC(=O)C(CC)OP(=O)(COc1ccc(CC(NC(=O)OC2COC3OCCC23)C(O)CN(CC(C)C)S(=O)(=O)c2ccc(OC)cc2)cc1)Oc1ccccc1 (mixture of isomers) [drawing 659 R1=OPh R2=mix-Hba-Et],< 50 nM,–

SMILES,EC50 (read-out: EC50),"EC50 (Human immunodeficiency virus 1, IIIB, MT2)"
"CCCCOC(=O)C(CC)NP(=O)(COc1ccc(CC(NC(=O)OC2COC3OCCC23)C(O)CN(CC(C)C)S(=O)(=O)c2ccc(OC)cc2)cc1)Oc1ccccc1 (single isomer, unassigned) [drawing 657 R1=OPh R2=Aba-Bu]",< 50 nM and 50 to 500 nM,–
"CCOC(=O)C(CC)NP(=O)(COc1ccc(C[C@H](NC(=O)O[C@H]2CO[C@H]3OCC[C@H]32)[C@H](O)CN(CC(C)C)S(=O)(=O)c2ccc(OC)cc2)cc1)Oc1ccccc1 (single isomer, unassigned) [drawing 657 R1=OPh R2=Aba-Et]",< 50 nM and 50 to 500 nM,–
"COc1ccc(S(=O)(=O)N(CC(C)C)C[C@@H](O)[C@H](Cc2ccc(OCP(=O)(Oc3ccccc3)OC(C)C(=O)OC(C)C)cc2)NC(=O)O[C@H]2CO[C@H]3OCC[C@H]32)cc1 (single isomer, unassigned) [drawing 658 R1=OPh R2=Lac-iPr]",< 50 nM,–
"CCOC(=O)C(C)OP(=O)(CCNc1ccc(CC(NC(=O)OC2COC3OCCC23)C(O)CN(CC(C)C)S(=O)(=O)c2ccc(OC)cc2)cc1)Oc1ccccc1 (single isomer, unassigned) [drawing 706]",< 50 nM,–
"CCOC(=O)C(C)OP(=O)(CCNc1ccc(CC(NC(=O)OC2COC3OCCC23)C(O)CN(CC(C)C)S(=O)(=O)c2ccc(OC)cc2)cc1)Oc1ccccc1 (single isomer, unassigned) [drawing 707]",< 50 nM,–
"CCOP(=O)(COc1ccc(S(=O)(=O)N(CC(C)C)CC(O)C(Cc2ccc(N)cc2)NC(=O)OC2COC3OCCC23)cc1)OCC (stereo not drawn) [NH2, OEt]",–,50 to 500 nM
COc1ccc(S(=O)(=O)N(CC(C)C)CC(O)C(Cc2ccc(OCP(=O)(O)OCc3ccccc3)cc2)NC(=O)OC2COC3OCCC23)cc1 (stereo not drawn) [drawing 651 R1=OH R2=OBn],500 to 5000 nM,–
CCOP(=O)(O)COc1ccc(CC(NC(=O)OC2COC3OCCC23)C(O)CN(CC(C)C)S(=O)(=O)c2ccc(OC)cc2)cc1 (stereo not drawn) [drawing 651 R1=OH R2=OEt],50 to 500 nM,–
COc1ccc(S(=O)(=O)N(CC(C)C)C[C@@H](O)[C@H](Cc2ccc(OCP(=O)(Oc3ccccc3)Oc3ccccc3)cc2)NC(=O)O[C@H]2CO[C@H]3OCC[C@H]32)cc1 [drawing 651 R1=OPh R2=OPh],< 50 nM,–
COc1ccc(S(=O)(=O)N(CC(C)C)C[C@@H](O)[C@H](Cc2ccc(OCP(=O)(OCOC(=O)OC(C)C)OCOC(=O)OC(C)C)cc2)NC(=O)O[C@H]2CO[C@H]3OCC[C@H]32)cc1 [drawing 651 R1=OPoc R2=OPoc],500 to 5000 nM,–
CCOP(=O)(COc1ccc(C[C@H](NC(=O)O[C@H]2CO[C@H]3OCC[C@H]32)[C@H](O)CN(CC(C)C)S(=O)(=O)c2ccc(O)cc2)cc1)OCC [drawing 652 R1=Et R2=Et],< 50 nM,–
CC(C)CN(C[C@@H](O)[C@H](Cc1ccc(OCP(=O)(O)O)cc1)NC(=O)O[C@H]1CO[C@H]2OCC[C@H]21)S(=O)(=O)c1ccc(O)cc1 [drawing 652 R1=OH R2=OH],500 to 5000 nM,–
CCOC(=O)C(CC)NP(=O)(COc1ccc(C[C@H](NC(=O)O[C@H]2CO[C@H]3OCC[C@H]32)[C@H](O)CN(CC(C)C)S(=O)(=O)c2ccc(OC)cc2)cc1)NC(CC)C(=O)OCC (stereo partly drawn) [drawing 655 R1=Aba-Et R2=Aba-Et],< 50 nM,–
CCCCOC(=O)C(Cc1ccccc1)NP(=O)(COc1ccc(CC(NC(=O)OC2COC3OCCC23)C(O)CN(CC(C)C)S(=O)(=O)c2ccc(OC)cc2)cc1)NC(Cc1ccccc1)C(=O)OCCCC (stereo not drawn) [drawing 655 R1=Phe-Bu R2=Phe-Bu],< 50 nM,–
CCOC(=O)C(Cc1ccccc1)NP(=O)(COc1ccc(CC(NC(=O)OC2COC3OCCC23)C(O)CN(CC(C)C)S(=O)(=O)c2ccc(OC)cc2)cc1)NC(Cc1ccccc1)C(=O)OCC (stereo not drawn) [drawing 655 R1=Phe-Et R2=Phe-Et],< 50 nM,–
CCOC(=O)COP(=O)(COc1ccc(C[C@H](NC(=O)O[C@H]2CO[C@H]3OCC[C@H]32)[C@H](O)CN(CC(C)C)S(=O)(=O)c2ccc(OC)cc2)cc1)OCC(=O)OCC [drawing 656 R1=Glc-Et R2=Glc-Et],500 to 5000 nM,–
CCOC(=O)C(C)NP(=O)(COc1ccc(C[C@H](NC(=O)O[C@H]2CO[C@H]3OCC[C@H]32)[C@H](O)CN(CC(C)C)S(=O)(=O)c2ccc(OC)cc2)cc1)OCc1ccccc1 (stereo partly drawn) [drawing 657 R1=OBn R2=Ala-Et],< 50 nM,–
CCCCOC(=O)C(C)NP(=O)(O)COc1ccc(C[C@H](NC(=O)O[C@H]2CO[C@H]3OCC[C@H]32)[C@H](O)CN(CC(C)C)S(=O)(=O)c2ccc(OC)cc2)cc1 (stereo partly drawn) [drawing 657 R1=OH R2=Ala-Bu],> 5000 nM,–
COc1ccc(S(=O)(=O)N(CC(C)C)C[C@@H](O)[C@H](Cc2ccc(OCP(=O)(O)NC(C)C(=O)O)cc2)NC(=O)O[C@H]2CO[C@H]3OCC[C@H]32)cc1 (stereo partly drawn) [drawing 657 R1=OH R2=Ala-OH],> 5000 nM,–
CCCCOC(=O)CNP(=O)(COc1ccc(C[C@H](NC(=O)O[C@H]2CO[C@H]3OCC[C@H]32)[C@H](O)CN(CC(C)C)S(=O)(=O)c2ccc(OC)cc2)cc1)Oc1ccccc1 (stereo partly drawn) [drawing 657 R1=OPh R2=Gly-Ru],50 to 500 nM,–
CCOC(=O)C(C)OP(=O)(COc1ccc(CC(NC(=O)OC2COC3OCCC23)C(O)CN(CC(C)C)S(=O)(=O)c2ccc(OC)cc2)cc1)OCC(F)(F)F (stereo not drawn) [drawing 658 R1=OCH2CF3 R2=Lac-Et],50 to 500 nM,–
CCOC(=O)C(C)OP(=O)(COc1ccc(CC(NC(=O)OC2COC3OCCC23)C(O)CN(CC(C)C)S(=O)(=O)c2ccc(OC)cc2)cc1)OCC (stereo not drawn) [drawing 658 R1=OEt R2=Lac-Et],50 to 500 nM,–
